{"source": "PubChem BioAssay AID1552", "about": "(Sanford-Burnham Center for Chemical Genomics, 2009)", "note": "Calls of active or inactive are those of the source. How the calls were made is not given here.", "data": [{"biological_target": "Ubiquitin-conjugating enzyme E2 N (Homo sapiens) (UniProt P61088)", "sequence (P61088 whole entry, looked up)": "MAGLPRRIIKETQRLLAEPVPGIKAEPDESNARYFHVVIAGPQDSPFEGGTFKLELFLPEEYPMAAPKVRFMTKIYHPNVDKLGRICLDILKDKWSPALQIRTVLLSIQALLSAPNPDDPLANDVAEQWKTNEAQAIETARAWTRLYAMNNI", "test": "NMR detection of UBE2N ligand binding – biophysical, purified protein (AID 1552)", "conditions": "NMR binding to purified UBE2N", "values": [{"molecule": "COC(=O)CSc1ncnc2c(C)csc12", "Kd": "> 4 mM (inactive)"}, {"molecule": "OCCNC(=S)Nc1ccccc1", "Kd": "> 4 mM (inactive)"}, {"molecule": "CC1CCC(N2CCN(c3ncccn3)CC2)CC1", "note": "(stereo not drawn)", "Kd": "> 4 mM (inactive)"}, {"molecule": "O=C1CC(=O)N(c2ccccc2F)C(=S)N1", "Kd": "> 4 mM (inactive)"}, {"molecule": "Nc1ccc(NS(=O)(=O)c2ccc(N)cc2)cc1", "Kd": "> 4 mM (inactive)"}, {"molecule": "CCCNC(=O)CSc1ncccc1C(=O)O", "Kd": "> 4 mM (inactive)"}, {"molecule": "Nc1cc(=O)[nH]c(SCC(=O)Nc2nccs2)n1", "Kd": "> 4 mM (inactive)"}, {"molecule": "CC(=O)c1cnc(Nc2nc(C)c3ccccc3n2)nc1C", "Kd": "> 4 mM (inactive)"}, {"molecule": "COc1ccc(NC(=O)CSc2nccc(=O)[nH]2)cc1", "Kd": "> 4 mM (inactive)"}, {"molecule": "CC(=O)NC(=S)Nc1cccc(C(=O)O)c1C", "Kd": "> 4 mM (inactive)"}, {"molecule": "N[C@@H](C(=O)O)[C@@H](O)[C@H](O)[C@H](O)CO", "Kd": "> 4 mM (inactive)"}, {"molecule": "COc1cc(C2NC(=S)NC(C)=C2C(C)=O)ccc1O", "note": "(stereo not drawn)", "Kd": "> 4 mM (inactive)"}, {"molecule": "COC(=O)CSc1n[nH]c(N)n1", "Kd": "> 4 mM (inactive)"}, {"molecule": "Cc1cc(C(=O)N2CCN(c3ccccn3)CC2)no1", "Kd": "> 4 mM (inactive)"}, {"molecule": "Cc1cc(C(=O)NCc2cccs2)cs1", "Kd": "> 4 mM (inactive)"}, {"molecule": "COc1cc(-c2nnc(NC(C)=O)o2)cc(OC)c1OC", "Kd": "> 4 mM (inactive)"}, {"molecule": "O=C(CCc1ccc(O)cc1)c1c(O)cc(O)cc1O[C@@H]1O[C@H](CO)[C@@H](O)[C@H](O)[C@H]1O", "Kd": "> 4 mM (inactive)"}, {"molecule": "O=S1(=O)CCC(N2CCCCC2)C1", "note": "(stereo not drawn)", "Kd": "> 4 mM (inactive)"}, {"molecule": "NC(=O)c1ccc2c(c1)OCO2", "Kd": "> 4 mM (inactive)"}, {"molecule": "CC(=O)c1ccc(NS(=O)(=O)c2cccc(C)c2)cc1", "Kd": "> 4 mM (inactive)"}, {"molecule": "COc1ccc(S(=O)(=O)Nc2ccccn2)c(C)c1C", "Kd": "> 4 mM (inactive)"}, {"molecule": "Cc1nnc(SCc2ccccc2)[nH]c1=O", "Kd": "> 4 mM (inactive)"}, {"molecule": "OC1CC(c2ccccc2)NC2(CCCC2)C1", "note": "(stereo not drawn)", "Kd": "> 4 mM (inactive)"}, {"molecule": "O=S(=O)(Nc1cccc2cn[nH]c12)c1ccc(F)cc1", "Kd": "> 4 mM (inactive)"}, {"molecule": "O=c1c(O)c(-c2ccccc2)oc2ccccc12", "Kd": "> 4 mM (inactive)"}, {"molecule": "NC(=O)N1CCc2ccccc21", "Kd": "> 4 mM (inactive)"}, {"molecule": "O=C(O)Cc1n[nH]c(=O)c2ccccc12", "Kd": "> 4 mM (inactive)"}, {"molecule": "COC(=O)C[C@@H]1C2(C)C(=O)[C@@H](CC3=C4C=C(OC)O[C@@H](c5ccoc5)[C@]4(C)CCC32)[C@H](O)C1(C)C", "note": "(stereo partly drawn)", "Kd": "> 4 mM (inactive)"}, {"molecule": "Nc1ncnc(NC2CCS(=O)(=O)C2)c1[N+](=O)[O-]", "note": "(stereo not drawn)", "Kd": "> 4 mM (inactive)"}, {"molecule": "Cc1oc2nc3c(c(=O)[nH]c(=O)n3C)n2c1C", "Kd": "> 4 mM (inactive)"}, {"molecule": "CC(=O)c1cccc(N=C2NC(=O)CS2)c1", "Kd": "> 4 mM (inactive)"}, {"molecule": "COc1cc(N)ncn1", "Kd": "> 4 mM (inactive)"}, {"molecule": "O=c1[nH]cnc2nn(-c3ccccc3)nc12", "Kd": "> 4 mM (inactive)"}, {"molecule": "O=C(O)Cn1c(C(F)(F)F)nc2ccccc21", "Kd": "> 4 mM (inactive)"}, {"molecule": "O=C(COc1ccccc1)N1CCc2ccccc2C1", "Kd": "> 4 mM (inactive)"}, {"molecule": "Cc1cc(C(=O)NCc2cccnc2)no1", "Kd": "> 4 mM (inactive)"}, {"molecule": "Cc1ccc(-c2nn3c(C)nnc3s2)cc1N", "Kd": "> 4 mM (inactive)"}, {"molecule": "Clc1ccc(-c2noc(CN3CCCC3)n2)cc1", "Kd": "> 4 mM (inactive)"}, {"molecule": "Cc1cc(NC(=O)NCCCSc2nncn2C)no1", "Kd": "> 4 mM (inactive)"}, {"molecule": "Cc1cc(OC(=O)c2c(C)cc(O)cc2O)cc(O)c1C(=O)O", "Kd": "> 4 mM (inactive)"}, {"molecule": "CSc1n[nH]c(NCc2cccs2)n1", "Kd": "> 4 mM (inactive)"}, {"molecule": "COc1cc2c(cc1O)CCNC2C", "note": "(stereo not drawn)", "Kd": "> 4 mM (inactive)"}, {"molecule": "C[C@]12CCC3C(CC[C@H]4C[C@@H](O)CC[C@]34C)C1CCC2=O", "note": "(stereo partly drawn)", "Kd": "> 4 mM (inactive)"}, {"molecule": "CC(C)c1ccccc1NC(=O)c1cnccn1", "Kd": "> 4 mM (inactive)"}, {"molecule": "OCc1cc(-c2cccs2)on1", "Kd": "> 4 mM (inactive)"}, {"molecule": "C/C=C(/C)C(=O)O[C@H]1CC[C@@]2(C)[C@@H]3CC[C@H]4[C@]5(O)C[C@H](O)[C@@]6(O)[C@@H](CN7C[C@@H](C)CC[C@H]7[C@@]6(C)O)[C@]5(O)C[C@@]42OC13O", "Kd": "> 4 mM (inactive)"}, {"molecule": "NCc1csc(-c2cccs2)n1", "Kd": "> 4 mM (inactive)"}, {"molecule": "OC1CCCN(Cc2ccccc2)C1", "note": "(stereo not drawn)", "Kd": "> 4 mM (inactive)"}, {"molecule": "COc1ccc(C2(CN)CCOCC2)cc1OC", "Kd": "> 4 mM (inactive)"}, {"molecule": "CCOc1ccc(C)cc1S(=O)(=O)n1ccnc1", "Kd": "> 4 mM (inactive)"}, {"molecule": "CNCc1ccccc1", "Kd": "> 4 mM (inactive)"}, {"molecule": "COc1cc([C@@H]2c3cc4c(cc3[C@H](O)[C@H]3COC(=O)[C@@H]23)OCO4)cc(OC)c1OC", "Kd": "> 4 mM (inactive)"}, {"molecule": "CCc1noc(C)c1C(=O)N1CCCC1", "Kd": "> 4 mM (inactive)"}, {"molecule": "O=C1CCC(C(=O)NCc2cccnc2)N1", "note": "(stereo not drawn)", "Kd": "> 4 mM (inactive)"}, {"molecule": "NC(=O)CC[C@H](N)C(=O)O", "Kd": "> 4 mM (inactive)"}, {"molecule": "O=C(COc1ccccc1O)NCCO", "Kd": "> 4 mM (inactive)"}, {"molecule": "Nc1c(N2CCCC2)cnn(-c2ccccc2)c1=O", "Kd": "> 4 mM (inactive)"}, {"molecule": "Nc1ccc(C2SCCS2)cc1", "Kd": "> 4 mM (inactive)"}, {"molecule": "CC(O)C(=O)N/N=C/c1cccs1", "note": "(stereo not drawn)", "Kd": "> 4 mM (inactive)"}, {"molecule": "COc1ccccc1CNc1nc2nc(C)cc(=O)n2[nH]1", "Kd": "> 4 mM (inactive)"}, {"molecule": "Cc1cc(C)n(-c2ccc(Cl)nn2)n1", "Kd": "> 4 mM (inactive)"}, {"molecule": "Cc1nc(-c2ccccc2)sc1C(N)=O", "Kd": "> 4 mM (inactive)"}, {"molecule": "CC1(C)C2CC(=O)[C@]3(C)C(CC[C@@]4(C)[C@H](c5ccoc5)OC(=O)[C@H]5O[C@]543)[C@@]2(C)C=C[C@@H]1O", "note": "(stereo partly drawn)", "Kd": "> 4 mM (inactive)"}, {"molecule": "Nc1cccc(S(=O)(=O)N2CCOCC2)c1", "Kd": "> 4 mM (inactive)"}, {"molecule": "COc1ccc(/C=N/n2cn[nH]c2=S)cc1", "Kd": "> 4 mM (inactive)"}, {"molecule": "CC(CCC(=O)O)[C@H]1CCC2C3CC[C@@H]4C[C@H](O)CC[C@]4(C)C3CC[C@@]21C", "note": "(stereo partly drawn)", "Kd": "> 4 mM (inactive)"}, {"molecule": "Cn1cnnc1SCC(=O)Nc1nccs1", "Kd": "> 4 mM (inactive)"}, {"molecule": "CN(C)N1C(=O)C2CCCCC2C1=O", "note": "(stereo not drawn)", "Kd": "> 4 mM (inactive)"}, {"molecule": "O=C1C=C(Nc2ccc(O)cc2)c2ccccc2C1=O", "Kd": "> 4 mM (inactive)"}, {"molecule": "O=C(O)C1CCCN1Cc1c[nH]c2ccccc12", "note": "(stereo not drawn)", "Kd": "> 4 mM (inactive)"}, {"molecule": "CCOC(=O)c1csc(C2COc3ccccc3O2)n1", "note": "(stereo not drawn)", "Kd": "> 4 mM (inactive)"}, {"molecule": "COc1ccc(C)cc1S(N)(=O)=O", "Kd": "> 4 mM (inactive)"}, {"molecule": "CC(=O)Nc1ccc(S(=O)(=O)Nc2cc(C)on2)cc1", "Kd": "> 4 mM (inactive)"}, {"molecule": "C=C(C)C1(O)OC(=O)C=C1OC", "note": "(stereo not drawn)", "Kd": "> 4 mM (inactive)"}, {"molecule": "S=C(Nc1ccc2nccnc2c1)N1CCOCC1", "Kd": "> 4 mM (inactive)"}, {"molecule": "CCOC(=O)c1cc(C)[nH]n1", "Kd": "> 4 mM (inactive)"}, {"molecule": "Cc1noc(C)c1C(=O)Nc1sc(C)c(C)c1C#N", "Kd": "> 4 mM (inactive)"}, {"molecule": "O=C(c1nc2ccccc2s1)N1CCSCC1", "Kd": "> 4 mM (inactive)"}, {"molecule": "O=C(Nn1cnnc1)c1ccccc1-c1ccccc1", "Kd": "> 4 mM (inactive)"}, {"molecule": "CN1CCN(C(=S)c2ccc(N(C)C)cc2)CC1", "Kd": "> 4 mM (inactive)"}, {"molecule": "Nc1ccc(Oc2ccccc2)nc1", "Kd": "> 4 mM (inactive)"}, {"molecule": "CCC(C)C(=O)O[C@@H]1C[C@@]2(C)[C@H](c3ccoc3)OC(=O)CC23OC2(C)OC34[C@H](OC(=O)C(C)C)[C@@]3(O)[C@@H](OC(=O)C5(C)OC5C)[C@@]5(C)C[C@]3(O)[C@@](C)([C@H]5CC(=O)OC)C14O2", "note": "(stereo partly drawn)", "Kd": "> 4 mM (inactive)"}, {"molecule": "Cc1cc(C)n2c(SCc3c(C)noc3C)nnc2n1", "Kd": "> 4 mM (inactive)"}]}]}
